Molecular target: T1, human FAAH (Homo sapiens, UniProt O00519)
T1 construct: host or cells: COS-7 cells, transient transfection (FuGENE 6); 13,000 g membrane fraction solubilised in 1% Triton X-100
T1 sequence (O00519 1-579): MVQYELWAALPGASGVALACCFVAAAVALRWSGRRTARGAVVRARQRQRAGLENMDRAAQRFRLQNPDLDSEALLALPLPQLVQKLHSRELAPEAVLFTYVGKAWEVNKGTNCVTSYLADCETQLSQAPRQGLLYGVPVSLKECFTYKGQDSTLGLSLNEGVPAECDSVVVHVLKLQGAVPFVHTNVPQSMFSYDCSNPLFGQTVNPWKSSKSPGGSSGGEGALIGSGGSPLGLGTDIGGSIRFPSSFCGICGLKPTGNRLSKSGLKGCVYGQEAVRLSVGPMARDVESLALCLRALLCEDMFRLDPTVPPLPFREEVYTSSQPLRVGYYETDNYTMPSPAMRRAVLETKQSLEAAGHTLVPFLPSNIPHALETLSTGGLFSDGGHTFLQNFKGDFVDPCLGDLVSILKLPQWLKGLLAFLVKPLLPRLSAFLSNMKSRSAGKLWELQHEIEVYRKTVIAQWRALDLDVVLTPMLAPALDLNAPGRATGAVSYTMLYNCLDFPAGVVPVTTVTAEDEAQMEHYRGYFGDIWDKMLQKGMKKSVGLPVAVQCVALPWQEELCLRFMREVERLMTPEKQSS
Experiment: Human FAAH biochemical inhibition assay (AMC arachidonoyl amide fluorescence)
Conditions: Table A, read-out: Activity (Ki) of other boronic acids tested, Table A
Protocol: Exemplary compounds are set forth in the Examples provided below. Compounds were assayed as inhibitors of human FAAH using the method described in detail in Example 286.
The following assays may be used to determine the inhibition of FAAH by the compounds of the present invention: (1) a fluorescence-based assay for fatty acid amide hydrolase compatible with high-throughput screening as described in Manjunath et al., Analytical Biochemistry (2005) 343:143-151; and (2) a high-throughput screening for the discovery of inhibitors of fatty acid amide hydrolase using a microsome-based fluorescent assay. Wang et al., Biomolecular Screening (2006) 1-9.
COS-7 cells were split the day before, 1:5 into 150 mm×25 mm cell culture dishes (Corning Inc., Cat. No. 430599). Transient transfection took place at 30-40% confluency according to FuGENE 6 Transfection Reagent (Roche, Cat. No. 11814 443 001).
The FuGENE transfection 6 reagent (45 uL) was added to 1410 μL of media (DMEM, serum free without pen/strep) in a 15 mL conical tube and incubated at room temp for 5 minutes, followed by the addition of FAAH plasmid DNA (15 μg) (OriGene Cat. No. TC119221, Genbank Accession No. NM_001441.1, 0.67 ug/uL) and a further incubation of 15 minutes at room temperature. The resulting solution was added into one dish of 30-40% confluent COS-7 cells in a drop-wise manner. The COS-7 cell dish was subsequently incubated for 48 hours. The cells are then harvested.
Media was aspirated from the dishes and the cells rinsed with 10 mL PBS. The PBS was removed and 3 mL of PBS added to the dish. The dish was scraped to resuspend the cells, and the subsequent cell suspension collected into a 15 mL conical tube. The cells were pelleted by centrifugation at 1200 rpm for 5 minutes in a bench top centrifuge. PBS was removed and the cell pellet snap frozen in liquid nitrogen and stored at −80° C.
COS-7 Cells—FAAH Purification: • (1) Fractionation: Frozen cell pellets from transient transfections were thawed on ice and resuspended in 12.5 mM Hepes pH 8.0, 100 mM NaCl, 1 mM EDTA (10 mL/0.2 g cell pellet). The pellets were dounce homogenized and then sonicated to produce cell extract. The cell extract was subsequently centrifuged at 1000 g to remove cellular debris. The pellet was discarded and the supernatant centrifuged at 13,000 g for 20 minutes. The pellet contained membrane bound FAAH. The supernatant was discarded and the pellet resolubilized. • (2) Re-solubilization: The fraction of interest, (13,000 g, membrane fraction) was re-suspended in 2.3 mL re-suspension buffer (20 mM Hepes pH 7.8, 10% v/v Glycerol, 1 mM EDTA, 1% Triton X-100) and the sample incubated on ice for 1 hour and then centrifuged to remove any particulate matter. The supernatant containing solubilized human FAAH was aliquoted and snap frozen in liquid nitrogen and stored at −80° C. until use. • (3) Characterization: Protein Concentration determined by Bradford assay. • SDS gel and Western blot to confirm presence of FAAH • FAAH activity assay • Km determination—96-well assay • Linear dependence—96-well assay • Standard compound Ki determination—384-well assay
Rat FAAH biochemical assays were carried out in a 96 well flat bottom black non-treated polystyrene plates (Corning Costar Catalogue #3915). FAAH reaction buffer: 50 mM Hepes (pH 7.5), 1 mM EDTA, 0.2% Triton X-100. FAAH substrate—AMC Arachidonoyl Amide (Cayman Chemicals Company, Catalog #10005098). The reaction was read in an Envision microtiter plate reader [Excitation filter 355 nm (40 nm bandpass); Emmision filter 460 nm (25 nm bandpass)]. The raw fluorescence was plotted on the y axis and the inhibitor concentration on the x axis to give a dose response inhibition curve. The data was fitted to a single site competitive inhibition equation, fixing the Km for the rat and human enzyme to 12 μM and 9 μM respectively. […]

SMILES	Ki
NNC(=O)CCc1ccc(B(O)O)cc1	100 to 1000 nM
CCOC(=O)COc1ccc(B(O)O)cc1	100 to 1000 nM
COC(=O)Nc1ccc(B(O)O)cc1	> 1000 nM

Same assay, conditions: class given in each Example, read-out: Activity (Ki, inhibition of human FAAH)

SMILES	Ki
OB(O)c1ccc(-c2cn(Cc3ccccc3)nn2)cc1F [Compound 137]	10 to 100 nM
CN(Cc1ccccc1)C(=O)/C=C/c1ccccc1B(O)O [Compound 114]	100 to 1000 nM
OB(O)c1ccc2nc(Oc3ccccc3Cl)ccc2c1 [Compound 196]	≤ 10 nM
OB(O)c1ccccc1-c1nnc(-c2ccco2)o1 [Compound 264]	> 1000 nM
O=C(CCc1ccccc1)N/N=C/c1ccccc1B(O)O [Compound 116]	> 1000 nM
O=C(CCc1nc2ccc(B(O)O)cc2o1)N1CCCCC1 [Compound 247]	10 to 100 nM
OB(O)c1ccc(-c2cnnn2Cc2ccccc2)cc1F [Compound 138]	100 to 1000 nM
CCCc1nnc(-c2c(F)cccc2B(O)O)o1 [Compound 262]	> 1000 nM
CCCCOc1ccc(B(O)O)c(-c2nnc(CCC)o2)c1 [Compound 271]	10 to 100 nM
OB(O)c1ccc(-c2cc(-c3ccccc3)no2)cc1 [Compound 156]	≤ 10 nM
OB(O)c1ccc2nc(OC3CCCCC3)ccc2c1 [Compound 192]	10 to 100 nM
OB(O)c1csc(-c2nnc(CCc3ccccc3)o2)c1 [Compound 58]	≤ 10 nM
O=C1c2ccc(B(O)O)cc2C(=O)N1CCc1ccccc1 [Compound 309]	≤ 10 nM
OB(O)c1ccc2nc(Oc3ccccc3)cnc2c1 [Compound 211]	10 to 100 nM
OB(O)c1ccc2nn(CCc3ccccc3)cc2c1 [Compound 315]	≤ 10 nM
Cn1cncc1-c1nnc(-c2ccc(B(O)O)cc2)o1 [Compound 54]	10 to 100 nM
OB(O)c1ccc2nc(Oc3cccnc3)ccc2c1 [Compound 209]	≤ 10 nM
CC(C)c1nnc(-c2ccccc2B(O)O)o1 [Compound 283]	> 1000 nM
CCCc1nnc(-c2ccc(B(O)O)cc2)o1 [Compound 39]	≤ 10 nM
O=C1c2ccc(B(O)O)cc2C(=O)N1Cc1ccccc1 [Compound 308]	≤ 10 nM
OB(O)c1ccc2cc(Oc3ncccn3)ccc2c1 [Compound 208]	≤ 10 nM
CN1N=Cc2cc(OCCc3ccccc3)ccc2B1O [Compound 108]	> 1000 nM

SMILES	Ki
N#Cc1cccc(Oc2ccc3cc(B(O)O)ccc3n2)c1 [Compound 198]	≤ 10 nM
OB(O)c1ccc([C@@H]2OC[C@@H](c3ccccc3)O2)cc1 [Compound 181]	≤ 10 nM
Cc1cccc(Cn2cc(-c3ccc(B(O)O)cc3)nn2)c1 [Compound 129]	≤ 10 nM
OB(O)c1ccc2nc(CC3CCN(Cc4ccccc4)CC3)oc2c1 [Compound 302]	10 to 100 nM
CC(C)c1cccc(-c2ccc(B(O)O)c(F)c2)c1 [Compound 289]	≤ 10 nM
CCCCCc1nnc(-c2ccc(B(O)O)cn2)o1 [Compound 9]	≤ 10 nM
OB(O)c1ccc2nc(Cc3ccccc3)oc2c1 [Compound 241]	≤ 10 nM
OB(O)c1ccc(-c2cccc3ncccc23)cc1F [Compound 229]	10 to 100 nM
COc1ccccc1Oc1ccc2cc(B(O)O)ccc2n1 [Compound 200]	≤ 10 nM
CCCCc1nnc(-c2ccc(B(O)O)cc2)o1 [Compound 42]	≤ 10 nM
CN(Cc1ccccc1)Cc1cc(OCc2ccccc2)ccc1B(O)O [Compound 110]	100 to 1000 nM
O=C(Cc1c[nH]c2ccccc12)N/N=C/c1ccccc1B(O)O [Compound 122]	> 1000 nM
CC(C)CCn1cc(-c2ccc(B(O)O)cc2)cn1 [Compound 222]	≤ 10 nM
OB(O)c1ccc(-c2cc(-c3ccccc3)on2)cc1 [Compound 160]	≤ 10 nM
O=C(CCB(O)O)N1CCN(C(=O)OCc2ccccc2)CC1 [Compound 322]	10 to 100 nM
OB(O)c1ccc2nc(Oc3ccc(Cl)cc3)ccc2c1 [Compound 201]	≤ 10 nM
OB(O)c1ccc2nc(COc3ccccc3)ccc2c1 [Compound 221]	10 to 100 nM
CC(C)CCCc1nnc(-c2ccc(B(O)O)cc2)o1 [Compound 38]	≤ 10 nM
OB(O)c1ccc(-c2cnn(Cc3ccccc3)c2)cc1F [Compound 226]	≤ 10 nM
CCCc1nnc(-c2cc(OCCc3ccccc3)ccc2B(O)O)s1 [Compound 267]	≤ 10 nM
CCCC1(c2ccccc2)CC(c2ccc(B(O)O)cc2)=NO1 (centres unmarked) [Compound 163]	100 to 1000 nM
OB(O)c1ccc(COc2ccc(B(O)O)cc2)cc1 [Compound 325]	100 to 1000 nM

SMILES	Ki
OB(O)c1ccc(C2=NOC(c3ccccc3)C2)cc1 (centres unmarked) [Compound 159]	≤ 10 nM
OB(O)c1ccc(-c2cccc(-c3ccccc3)c2)cc1 [Compound 219]	10 to 100 nM
CC(C)CN1CCC(Cc2nc3ccc(B(O)O)cc3o2)CC1 [Compound 304]	> 1000 nM
CCCc1nnc(-c2ccccc2B(O)O)s1 [Compound 266]	> 1000 nM
CC(C)(C)OC(=O)N1CCN(c2ccc(B(O)O)cc2)CC1 [Compound 318]	10 to 100 nM
OB(O)c1csc(-c2nnc(Cc3ccccc3)o2)c1 [Compound 60]	≤ 10 nM
Cc1nnc(-c2cc(OCCc3ccccc3)ccc2B(O)O)o1 [Compound 19]	≤ 10 nM
OB(O)c1ccc2nc(N3CCCc4ccccc43)ccc2c1 [Compound 207]	10 to 100 nM
OCc1cc(OCc2ccccc2)ccc1B(O)O [Compound 96]	> 1000 nM
OB(O)c1ccc(-n2cc(-c3ccccc3)nn2)cc1 [Compound 143]	≤ 10 nM
Cc1cc(Oc2ccccc2)nc2c(C)cc(B(O)O)cc12 [Compound 212]	10 to 100 nM
OB(O)c1ccc2cc(CCc3ccccc3)oc2c1 [Compound 293]	≤ 10 nM
OB(O)c1ccc2nc(Oc3cccc(Cl)c3)ccc2c1 [Compound 197]	≤ 10 nM
OB(O)c1ccc(-c2nnc(CCCC(F)(F)F)o2)cc1 [Compound 40]	≤ 10 nM
Cc1nc(-c2ccccc2)sc1-c1ccc(B(O)O)c(F)c1 [Compound 225]	10 to 100 nM
OB(O)c1ccc(-c2cn(Cc3ccccc3)nn2)cc1 [Example 117]	≤ 10 nM
O=S(=O)(c1ccccc1)N1CCC(Cc2nc3ccc(B(O)O)cc3o2)CC1 [Compound 305]	10 to 100 nM
O=C(CCc1nnc(-c2ccc(B(O)O)cc2)o1)N1CCCCC1 [Compound 239]	10 to 100 nM
OB(O)c1ccc(Oc2ccc(F)nc2)cc1F [Compound 298]	≤ 10 nM
OB(O)c1ccc(-c2nnc(-c3cccc4c3OCO4)o2)cc1 [Compound 53]	≤ 10 nM
OB1c2ccc(OCc3ccccc3)cc2C=NN1Cc1ccccc1 [Compound 109]	10 to 100 nM

— patent US8957049B2, “Inhibitors of fatty acid amide hydrolase” (Infinity Pharmaceuticals, Inc., priority 2008, dated 2015)
